Assay results published in patent US6277847A, “Herbicidal isoindolinonyl-and 3,4-dihydroisoquinolonyl-substituted heterocycles” (FMC Corporation, priority 2000, dated 2001).

Experiments:
Type in all cases: in vivo
[1] = system: velvetleaf (Abutilon theophrasti); assay: post-emergence herbicidal activity, velvetleaf; settings: 1 Kg/Ha, about fourteen days, read-out: post-emergence herbicidal activity (% control) ABUTH
Protocol: (§1) This example sets forth the methods of herbicidal testing conducted on the specific compounds set forth below. Specifically, the compounds referenced below were tested for pre- and post-emergence herbicidal activity using a variety of crops and weeds. The test plants include, but are not limited to, soybean (Glycine max -- var. Winchester), field corn (Zea mays var. Pioneer 3732), wheat (Triticum aestivum var. Lew), morningglory (Ipomea lacunosa or Ipomea hederacea), velvetleaf (Abutilon theophrasti), green foxtail (Setaria viridis), Johnsongrass (Sorghum halepense), blackgrass (Aloepecurus myosuroides), common chickweed (Stellaria media), and common cocklebur (Xanthium strumarium L.).
(§2) In the post-emergence test, seeds of the plant species named above were planted in flats containing the appropriate soil mixture where they were maintained to allow the seeds to germinate. When the plants in these flats reached the proper stage of growth, flats for the pre-emergence tests were planted in a like manner. The flats containing the post-emergence and pre-emergence test plant species were then sprayed with an appropriately concentrated water/acetone solution of test compound. Once treated the flats were maintained, along with untreated controls, for about fourteen days. All treated plants were then examined for phytotoxicity, which was expressed as percent control where 0 is no effect and 100 is complete control. Effective rates of application for the compounds of the present invention range from 0.001 to 3 kg/ha, more likely from […] to 1 Kg/ha.
(§3) Herbicidal activity data at selected application rates are in Tables 4 and 5. The test compounds are identified by numbers correspond to those in Table 1.
(§4) SOY is soybean, WHT is wheat, CRN is corn, ABUTH is velvetleaf, IPOSS is
(§5) morningglory, STEME is chickweed, XANPE is cocklebur, ALOMY is blackgrass,
(§6) Rate of application of test compound is 1 Kg/Ha. The definitions as shown under Table 4 apply to Table 5.

[2] = system: common cocklebur (Xanthium strumarium L.); assay: pre-emergence herbicidal activity, cocklebur; settings: 1 kg/Ha, about fourteen days, read-out: pre-emergence herbicidal activity (% control) XANPE
Protocol: as §1, §2, §3
(§7) Rate of application of test compound is 1 kg/Ha
as §4
(§8) morningglory, STEME is chickweed, XANPE is cocklebur, ALOMY is blackgrass, […]

[3] = system: green foxtail (Setaria viridis); assay: post-emergence herbicidal activity, green foxtail; settings: 1 Kg/Ha, about fourteen days, read-out: post-emergence herbicidal activity (% control) SETVI
Protocol: as §1, §2, §3, §4, §5, §6

[4] = system: soybean (Glycine max -- var. Winchester); assay: pre-emergence herbicidal activity, soybean; settings: 1 kg/Ha, about fourteen days, read-out: pre-emergence herbicidal activity (% control) SOY
Protocol: as §1, §2, §3, §7, §4, §8

[5] = system: common chickweed (Stellaria media); assay: pre-emergence herbicidal activity, chickweed; settings: 1 kg/Ha, about fourteen days, read-out: pre-emergence herbicidal activity (% control) STEME
Protocol: as §1, §2, §3, §7, §4, §8

[6] = system: soybean (Glycine max -- var. Winchester); assay: post-emergence herbicidal activity, soybean; settings: 1 Kg/Ha, about fourteen days, read-out: post-emergence herbicidal activity (% control) SOY
Protocol: as §1, §2, §3, §4, §5, §6

[7] = system: Johnsongrass (Sorghum halepense); assay: post-emergence herbicidal activity, johnsongrass; settings: 1 Kg/Ha, about fourteen days, read-out: post-emergence herbicidal activity (% control) SORHA
Protocol: as §1, §2, §3, §4, §5, §6

[8] = system: morningglory (Ipomea lacunosa or Ipomea hederacea); assay: post-emergence herbicidal activity, morningglory; settings: Ipomoea, 1 Kg/Ha, about fourteen days, read-out: post-emergence herbicidal activity (% control) IPOSS
Protocol: as §1, §2, §3, §4, §5, §6

[9] = system: velvetleaf (Abutilon theophrasti); assay: pre-emergence herbicidal activity, velvetleaf; settings: 1 kg/Ha, about fourteen days, read-out: pre-emergence herbicidal activity (% control) ABUTH
Protocol: as §1, §2, §3, §7, §4, §8

[10] = system: green foxtail (Setaria viridis); assay: pre-emergence herbicidal activity, green foxtail; settings: 1 kg/Ha, about fourteen days, read-out: pre-emergence herbicidal activity (% control) SETVI
Protocol: as §1, §2, §3, §7, §4, §8

[11] = system: field corn (Zea mays var. Pioneer 3732); assay: pre-emergence herbicidal activity, corn; settings: 1 kg/Ha, about fourteen days, read-out: pre-emergence herbicidal activity (% control) CRN
Protocol: as §1, §2, §3, §7, §4, §8

[12] = system: morningglory (Ipomea lacunosa or Ipomea hederacea); assay: pre-emergence herbicidal activity, morningglory; settings: Ipomoea, 1 kg/Ha, about fourteen days, read-out: pre-emergence herbicidal activity (% control) IPOSS
Protocol: as §1, §2, §3, §7, §4, §8

[13] = system: wheat (Triticum aestivum var. Lew); assay: pre-emergence herbicidal activity, wheat; settings: 1 kg/Ha, about fourteen days, read-out: pre-emergence herbicidal activity (% control) WHT
Protocol: as §1, §2, §3, §7, §4, §8

[14] = system: Johnsongrass (Sorghum halepense); assay: pre-emergence herbicidal activity, johnsongrass; settings: 1 kg/Ha, about fourteen days, read-out: pre-emergence herbicidal activity (% control) SORHA
Protocol: as §1, §2, §3, §7, §4, §8

[15] = system: field corn (Zea mays var. Pioneer 3732); assay: post-emergence herbicidal activity, corn; settings: 1 Kg/Ha, about fourteen days, read-out: post-emergence herbicidal activity (% control) CRN
Protocol: as §1, §2, §3, §4, §5, §6

[16] = system: wheat (Triticum aestivum var. Lew); assay: post-emergence herbicidal activity, wheat; settings: 1 Kg/Ha, about fourteen days, read-out: post-emergence herbicidal activity (% control) WHT
Protocol: as §1, §2, §3, §4, §5, §6

[17] = system: common cocklebur (Xanthium strumarium L.); assay: post-emergence herbicidal activity, cocklebur; settings: 1 Kg/Ha, about fourteen days, read-out: post-emergence herbicidal activity (% control) XANPE
Protocol: as §1, §2, §3, §4, §5, §6

[18] = system: blackgrass (Aloepecurus myosuroides); assay: pre-emergence herbicidal activity, blackgrass; settings: Alopecurus myosuroides, 1 kg/Ha, about fourteen days, read-out: pre-emergence herbicidal activity (% control) ALOMY
Protocol: as §1, §2, §3, §7, §4, §8

[19] = system: common chickweed (Stellaria media); assay: post-emergence herbicidal activity, chickweed; settings: 1 Kg/Ha, about fourteen days, read-out: post-emergence herbicidal activity (% control) STEME
Protocol: as §1, §2, §3, §4, §5, §6

Compound | activity at 1000 g/ha [1] [%] | activity at 1000 g/ha [2] [%] | activity at 1000 g/ha [3] [%] | activity at 1000 g/ha [4] [%] | activity at 1000 g/ha [5] [%] | activity at 1000 g/ha [6] [%] | activity at 1000 g/ha [7] [%] | activity at 1000 g/ha [8] [%] | activity at 1000 g/ha [9] [%] | activity at 1000 g/ha [10] [%] | activity at 1000 g/ha [11] [%] | activity at 1000 g/ha [12] [%] | activity at 1000 g/ha [13] [%] | activity at 1000 g/ha [14] [%] | activity at 1000 g/ha [15] [%] | activity at 1000 g/ha [16] [%] | activity at 1000 g/ha [17] [%] | activity at 1000 g/ha [18] [%] | activity at 1000 g/ha [19] [%]
C=CCON1Cc2c(-n3c(=O)cc(C(F)(F)F)n(C)c3=O)ccc(Cl)c2C1=O [Compound 17] | 100 | 100 | 100 | 100 | 100 | 100 | 100 | 90 | 100 | 100 | 100 | 100 | 100 | 100 | 90 | 100 | 100 |  | 
Cn1c(C(F)(F)F)cc(=O)n(-c2ccc(Cl)c3c2CN(O)C3=O)c1=O [Compound 18] | 100 | 100 | 70 | 95 |  | 80 | 65 | 100 | 100 | 100 | 100 | 100 | 60 | 100 | 70 | 50 | 95 |  | 
COc1ccc(CN2Cc3c(-n4c(=O)cc(C(F)(F)F)n(C)c4=O)ccc(Cl)c3C2=O)cc1 [Compound 25] | 100 | 40 | 100 | 50 | 100 | 80 | 75 | 90 | 100 | 100 | 95 | 70 | 60 |  | 90 | 40 | 60 | 75 | 80
COC(=O)CCN1Cc2c(-n3c(=O)cc(C(F)(F)F)n(C)c3=O)ccc(Cl)c2C1=O [Compound 26] | 100 | 100 | 100 | 100 | 100 | 100 | 80 | 80 | 100 | 80 | 80 | 80 | 50 |  | 95 | 70 | 100 | 80 | 100
